Earlier results as cited in patent US20070031570A1, “Hydrothermically processed compositions containing phytosterols” (Archer-Daniels-Midland Company, priority 2002, published 2007).
Where two headings read alike, the source gives them in different places.

How the values were obtained:
[1] = not given; remark: listed apart in the source
[2] = 2.8 g sitostanol/day given as sitostanol ester in margarine

## CC[C@H](CC[C@@H](C)[C@H]1CC[C@H]2[C@@H]3CC[C@H]4C[C@@H](O)CC[C@]4(C)[C@H]3CC[C@]12C)C(C)C [sitostanol]
Delivery system which avoids an oil phase ('562 and '776 patents)
  reduces cholesterol absorption: ≤ 37%
[1]; subjects with moderate hypercholesterolemia, 3 g/day
  effect on serum cholesterol: no effect
[1]; subjects with severe hypercholesterolemia, 1.5 g/day
  reduced serum cholesterol: 15%

## CC[C@H](CC[C@@H](C)[C@H]1CC[C@H]2[C@@H]3CC=C4C[C@@H](O)CC[C@]4(C)[C@H]3CC[C@]12C)C(C)C [sitosterol]
[1]; dose-response study, 3-9 g/day of powdered sitosterol
  decrease serum cholesterol levels: 12%
[1]; doses of 5-18 g sitosterol/day
  reduced serum cholesterol: 16-20%

## neomycin
orally-administered
  effect on cholesterol absorption: reduces cholesterol absorption effectively

## sitostanol ester
humans, dissolved in dietary fat
  less effective at reducing cholesterol absorption compared to the unesterified sterol: 21%
[2]
  reduced LDL cholesterol: 16%
